Data on seven compounds can be found in patent US12637661B2, “Methods of enhancing stem cell differentiation into beta cells” (Vertex Pharmaceuticals Incorporated, priority 2018, dated 2026).

For data set [1], the system named is stage 5 cells of hESC line (D97, D114, and D241 HUES8). Nature of the data set: Stage 5 of directed differentiation of hESC line treated with EZH2 inhibitor, HDAC inhibitor or combination. The data set is classed as cell-based, human. The following applies: for percentage of pre-SC-β cells (C-PEP+, NKX6-1+): stage 5, FIG. 15; for performance compared with other inhibitors of the same class: stage 5, FIGS. 14 and 15; for proportion of all β cell types: stage 5, FIG. 14. Here is the method:
The mRNA expression of NGN3 was investigated in each steps of directed differentiation described herein (FIG. 5), and it was observed that cells expressed NGN3 to initiate SC-β cell differentiation (FIG. 7). The effects of inhibition of histone methylation and deacetylation on SC-β cell differentiation were investigated (FIG. 6). Stage 5 of the directed differentiation as described herein (FIGS. 5-6) in hESC line (D97, D114, and […] HUES8) was treated with an EZH2 inhibitor (DZNep), HDAC inhibitor (KD5170), and a combination thereof (FIG. 6). Candidate inhibitor screening was performed as described in FIG. 18. Inhibition of EZH2 or HDAC in stage 5 (D97 HUES8) increased endocrine cells and SC-β cells (FIG. 8). […] SC-β cells comprised 35.4% at the end of stage 5 with DZNep and KD5170. […] Combined inhibition of EZH2 and HDAC in stage 5 was tested as described in FIG. 17. Combined inhibition of EZH2 and HDAC in stage 5 ([…] HUES8) increased Neorogenin3+ progenitors in stage 5 (FIGS. 12-13). Combined inhibition of EZH2 and HDAC in stage 5 increased NKX6.1+ progenitor cells (FIG. 16).

Another data set deals with EZH2 (Homo sapiens, UniProt Q15910). The following applies: cited from earlier work.
Sequence of EZH2 (Q15910 whole entry, species assumed): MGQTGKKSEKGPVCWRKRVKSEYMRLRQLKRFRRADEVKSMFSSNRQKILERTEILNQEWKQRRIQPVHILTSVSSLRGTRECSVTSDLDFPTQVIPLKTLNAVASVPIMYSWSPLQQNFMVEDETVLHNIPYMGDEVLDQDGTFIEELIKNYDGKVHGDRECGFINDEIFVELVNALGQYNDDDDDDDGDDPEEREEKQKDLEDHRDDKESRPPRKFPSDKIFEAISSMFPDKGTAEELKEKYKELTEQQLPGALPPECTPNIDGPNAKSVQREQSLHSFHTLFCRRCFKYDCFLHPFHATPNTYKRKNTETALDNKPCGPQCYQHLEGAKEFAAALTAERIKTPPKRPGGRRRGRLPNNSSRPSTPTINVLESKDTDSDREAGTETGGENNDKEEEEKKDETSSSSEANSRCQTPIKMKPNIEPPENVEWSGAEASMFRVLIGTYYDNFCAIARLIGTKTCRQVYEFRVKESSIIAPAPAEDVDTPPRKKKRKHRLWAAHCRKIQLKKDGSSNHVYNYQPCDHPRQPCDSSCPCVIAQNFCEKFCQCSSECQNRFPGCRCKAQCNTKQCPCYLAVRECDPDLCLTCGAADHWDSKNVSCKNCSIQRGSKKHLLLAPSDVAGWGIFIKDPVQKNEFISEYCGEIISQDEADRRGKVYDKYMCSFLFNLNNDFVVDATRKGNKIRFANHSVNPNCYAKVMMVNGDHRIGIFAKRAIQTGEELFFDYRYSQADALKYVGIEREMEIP
Sequence of EZH2 (O75530 whole entry partner, species assumed): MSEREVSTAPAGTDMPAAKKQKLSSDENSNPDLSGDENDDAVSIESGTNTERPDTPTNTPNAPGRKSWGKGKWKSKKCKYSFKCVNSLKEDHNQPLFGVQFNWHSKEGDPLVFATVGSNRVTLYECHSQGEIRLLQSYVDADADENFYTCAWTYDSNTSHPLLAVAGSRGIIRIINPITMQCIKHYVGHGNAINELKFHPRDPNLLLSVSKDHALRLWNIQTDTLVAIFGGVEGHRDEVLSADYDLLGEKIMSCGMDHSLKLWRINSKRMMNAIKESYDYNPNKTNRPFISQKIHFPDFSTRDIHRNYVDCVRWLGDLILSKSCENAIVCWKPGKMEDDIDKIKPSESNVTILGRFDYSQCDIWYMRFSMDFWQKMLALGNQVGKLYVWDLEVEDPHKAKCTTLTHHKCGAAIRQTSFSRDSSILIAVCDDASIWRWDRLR
Sequence of EZH2 (Q15022 whole entry partner, species assumed): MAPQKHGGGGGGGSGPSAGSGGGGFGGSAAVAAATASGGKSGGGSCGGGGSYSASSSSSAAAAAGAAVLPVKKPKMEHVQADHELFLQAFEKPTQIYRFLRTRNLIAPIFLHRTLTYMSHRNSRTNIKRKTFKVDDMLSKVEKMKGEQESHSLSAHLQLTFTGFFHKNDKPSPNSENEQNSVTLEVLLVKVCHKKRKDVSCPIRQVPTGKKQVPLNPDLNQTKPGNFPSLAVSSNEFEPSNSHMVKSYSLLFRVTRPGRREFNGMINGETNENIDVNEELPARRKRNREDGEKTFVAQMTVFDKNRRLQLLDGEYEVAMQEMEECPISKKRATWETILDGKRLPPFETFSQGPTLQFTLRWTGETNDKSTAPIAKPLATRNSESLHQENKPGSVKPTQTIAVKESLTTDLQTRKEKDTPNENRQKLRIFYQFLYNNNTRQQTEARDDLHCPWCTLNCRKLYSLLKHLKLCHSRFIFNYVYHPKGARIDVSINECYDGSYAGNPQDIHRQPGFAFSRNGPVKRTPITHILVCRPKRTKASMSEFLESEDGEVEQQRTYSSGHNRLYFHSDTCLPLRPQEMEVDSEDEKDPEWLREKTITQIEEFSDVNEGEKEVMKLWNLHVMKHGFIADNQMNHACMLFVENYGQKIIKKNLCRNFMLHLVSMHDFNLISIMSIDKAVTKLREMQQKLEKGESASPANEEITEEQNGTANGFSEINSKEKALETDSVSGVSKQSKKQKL

Molecules are shown by their SMILES.

With `Nc1nccc2c1ncn2[C@@H]1C=C(CO)[C@@H](O)[C@H]1O` [DZNep, 3-deazaneplanocin A], the viability result in data set [1] (1 μM throughout stage 5) is “without affecting viability”. The “(VMAT1+INS−) EC population removed” value in data set [1] (1 μM throughout stage 5, FIGS. 19-21) was “more than half”. Moreover, the “proportion / differentiation of endocrine cells (CHGA+)” value in data set [1] (stage 5) was “increased”. Besides, in data set [1], the “percentage of pre-SC-β cells (C-PEP+, NKX6-1+)” value (“percentage of pre-SC-β cells” for short) was “increased” and the “performance compared with other inhibitors of the same class” value is “outperforms other EZH2 inhibitors”. For the same compound, the “progenitors cells (NKX6-1+)” value in data set [1] (stage 5, FIG. 16) is recorded as “increased”. In addition, in data set [1] (stage 5, FIG. 19), the “VMAT1+INS− EC population” value is given as “specific decrease”. Moreover, the “NKX6.1-ChromA+ PH cells” value in data set [1] (stage 5, FIG. 20) was “concomitant increase”. Moreover, in data set [1] (stage 5, FIG. 21), the “NKX6.1+INS+ SC-β cell population” value is given as “unaffected”. The “selectivity / specificity for EZH2 (in words)” value at EZH2 is reported as “may not be specific to EZH2”.

In the case of `CC[C@H](C)n1cc(C)c2c(C(=O)NCc3c(C)cc(C)[nH]c3=O)cc(-c3ccc(N4CCNCC4)nc3)cc21` [GSK126], the “proportion of all β cell types” value in data set [1] is listed as “did not increase”.

Consider `CC(=O)SCC(=O)c1ccc(NS(=O)(=O)c2ccc(OCCCN(C)C)cc2)nc1` [KD5170], for which, in data set [1], the “percentage of pre-SC-β cells” value is “increased” and the “performance compared with other inhibitors of the same class” value is given as “outperforms other HDAC inhibitors”.

As to `O=C(CCCCCCC(=O)Nc1ccccc1)NO` [SAHA], the “percentage of pre-SC-β cells” value in data set [1] is “did not increase”.

Consider `CC(/C=C/C(=O)NO)=C\[C@@H](C)C(=O)c1ccc(N(C)C)cc1` [TSA], for which the “percentage of pre-SC-β cells” value in data set [1] was “did not increase”.

`CCCc1cc(C)[nH]c(=O)c1CNC(=O)c1cc(-c2ccc(N3CCN(C(C)C)CC3)nc2)cc2c1cnn2C(C)C` [UNC1999]: the “proportion of all β cell types” value in data set [1] was “did not increase”. On EZH2, the “selectivity / specificity for EZH2 (in words)” value is “less selective”.

In the case of `CCCC(=O)[O-].[Na+]` [sodium butyrate], the “percentage of pre-SC-β cells” value in data set [1] is “did not increase”.
